Data on eleven compounds can be found in patent publication US4363922A, “Esters of antibiotic nodusmicin” (priority 1981, dated 1982).

Series [1] has as its system S.lutea UC-130. The experiment in a line: Dipped disc agar diffusion assay, S. lutea. The conditions noted are these: Micrococcus luteus, UC130, 16 h, read-out: Agar Diffusion 1 mg./ml. S.lutea UC-130 (inhibition zone). In general terms: A growth-free zone around the sample is the usual read-out of agar diffusion tests.
Series [2] has as its system S.pyrogenes UC-152. Put plainly: Minimum Inhibitory Concentration, microplate broth-dilution, S. pyrogenes UC-152.
The subject of series [3] is S.aureus UC-570. Put plainly: Minimum Inhibitory Concentration, microplate broth-dilution, S. aureus UC-570. The note with it: Staphylococcus aureus.
In series [4] the test system is S.aureus UC-746. The experiment in a line: Minimum Inhibitory Concentration, microplate broth-dilution, S. aureus UC-746. The conditions noted are these: Staphylococcus aureus.
Series [5] deals with S.aureus UC-76. The experiment in a line: Minimum Inhibitory Concentration, microplate broth-dilution, S. aureus UC-76. The conditions noted are these: Staphylococcus aureus.
Series [6] has as its system S.aureus UC 80. Put plainly: Dipped disc agar diffusion assay, S. aureus. The conditions noted are these: Staphylococcus aureus, UC80, 16 h.
The nature of series [7]: Solubility noted in the MIC determination. The note with it: BHI broth.
Where [8] appears, read: read-out: MIC S.pyrogenes UC-152.
Where [9] appears, read: UC570, read-out: MIC S.aureus UC-570.
[10] abbreviates: UC746, read-out: MIC S.aureus UC-746.
[11] abbreviates: UC76, read-out: MIC S.aureus UC-76.
Setting [12] is: read-out: Agar Diffusion 1 mg./ml. S.aureus UC 80 (inhibition zone).
Setting [13] is: read-out: MIC S.pyrogenes UC-152, BHI broth.
Setting [14] is: UC570, read-out: MIC S.aureus UC-570, BHI broth, sensitive strain.
Setting [15] is: UC746, read-out: MIC S.aureus UC-746, BHI broth, strain resistant to tetracycline.
[16] abbreviates: UC76, read-out: MIC S.aureus UC-76, BHI broth, sensitive strain.

Converted amounts (≈) assume the structure as drawn. Like-named read-outs stand apart in the source and are kept apart here.

What is called MIC is the least concentration at which growth counts as inhibited. For the compound `COC1CC2C=CC3C4OC2(C(C)=CC(C)C(C(C)O)OC1=O)C3C(O)C(C)C4OC(=O)c1ccncc1` (centres unmarked) [U-60,925, 9-O--Isonicotinoyl], in series [1], the zone of inhibition at 1000 µg/mL was 38 mm. The MIC was above 250 µg/mL in series [2] (setting [8]), 250 µg/mL (≈ 474 µM) in series [3] (setting [9]), 250 µg/mL (≈ 474 µM) in series [4] (setting [10]) and 250 µg/mL (≈ 474 µM) in series [5] (setting [11]).
With `COC1CC2C=CC3C4OC2(C(C)=CC(C)C(C(C)O)OC1=O)C3C(O)C(C)C4OC(=O)[C@@H]1CCCN1` (stereo partly drawn) [U-60,933, 9-O--L-Pyrolyl-], the zone of inhibition at 1000 µg/mL in series [1] was determined as 38 mm; in series [6] (setting [12]), 16 mm. In addition, the MIC in series [2] (setting [8]) was above 250 µg/mL; in series [3] (setting [9]), 62.5 µg/mL (≈ 120 µM); in series [4] (setting [10]), 62.5 µg/mL (≈ 120 µM); in series [5] (setting [11]), 31.2 µg/mL (≈ 60 µM).
For `COC1CC2C=CC3C4OC2(C(C)=CC(C)C(C(C)O)OC1=O)C3C(O)C(C)C4OC(=O)c1cccn1C` (centres unmarked) [U-60,988, 9-O--N--Methylpyrrole-2-carbonyl-], the zone of inhibition at 1000 µg/mL in series [1] amounted to 24 mm. Further, the MIC in series [2] (setting [13]) was 125 µg/mL (≈ 236 µM); in series [3] (setting [14]) it was above 250 µg/mL; in series [4] (setting [15]) it was 250 µg/mL (≈ 472 µM); in series [5] (setting [16]) it was 250 µg/mL (≈ 472 µM).
Take `COC1CC2C=CC3C4OC2(C(C)=CC(C)C(C(C)O)OC1=O)C3C(O)C(C)C4OC(=O)c1cccs1` (centres unmarked) [U-60,989, 9-O--Thiophene-2-carbonyl-]: the zone of inhibition at 1000 µg/mL in series [1] was found to be 41 mm; in series [6] (setting [12]) it was 27 mm. Moreover, the MIC in series [2] (setting [8]) worked out at 125 µg/mL (≈ 235 µM); in series [3] (setting [9]), 3.9 µg/mL (≈ 7.32 µM); in series [4] (setting [10]) it was 3.9 µg/mL (≈ 7.32 µM); in series [5] (setting [11]), 3.9 µg/mL (≈ 7.32 µM).
In the case of `COC1CC2C=CC3C4OC2(C(C)=CC(C)C(C(C)O)OC1=O)C3C(O)C(C)C4OC(=O)c1ccc([N+](=O)[O-])o1` (centres unmarked) [U-60,990, 9-O--5-Nitrofuroyl], the zone of inhibition at 1000 µg/mL in series [1] was 33 mm. In addition, the MIC came to 125 µg/mL (≈ 223 µM) in series [2] (setting [8]), 31.2 µg/mL (≈ 55.6 µM) in series [3] (setting [9]), 62.5 µg/mL (≈ 111 µM) in series [4] (setting [10]) and 31.2 µg/mL (≈ 55.6 µM) in series [5] (setting [11]).
As to `COC1CC2C=CC3C4OC2(C(C)=CC(C)C(C(C)O)OC1=O)C3C(O)C(C)C4OC(=O)c1cnccn1` (centres unmarked) [U-61,264, 9-O--Pyrrazine-2-carbonyl], in series [1], the zone of inhibition at 1000 µg/mL worked out at 27 mm. Also, the MIC in series [2] (setting [8]), in series [3] (setting [9]), in series [4] (setting [10]) and in series [5] (setting [11]) was above 125 µg/mL in each case.
Turning to `COC1CC2C=CC3C4OC2(C(C)=CC(C)C(C(C)O)OC1=O)C3C(O)C(C)C4OC(=O)c1ccc(C)[nH]1` (centres unmarked) [U-61,265, 9-O--5-Methylpyrrole-2-carbonyl], the zone of inhibition at 1000 µg/mL in series [1] came out at 30 mm; in series [6] (setting [12]) it was 20 mm. Further, the MIC in series [2] (setting [8]) was 125 µg/mL (≈ 236 µM); in series [3] (setting [9]) it was 31.2 µg/mL (≈ 58.9 µM); in series [4] (setting [10]) it was 31.2 µg/mL (≈ 58.9 µM); in series [5] (setting [11]), 31.2 µg/mL (≈ 58.9 µM).
As for `COC1CC2C=CC3C4OC2(C(C)=CC(C)C(C(C)O)OC1=O)C3C(O)C(C)C4OC(=O)c1cc2ccccc2[nH]1` (centres unmarked) [U-61,273, 9-O--Indole-2-carbonyl-], in series [1], the zone of inhibition at 1000 µg/mL came to 22 mm. Moreover, the “insoluble” value in series [7] is “insoluble”.
`COC1CC2C=CC3C4OC2(C(C)=CC(C)C(C(C)O)OC1=O)C3C(O)C(C)C4OC(=O)c1ccc([N+](=O)[O-])[nH]1` (centres unmarked) [U-61,427, 9-O--5-Nitropyrrole-2-carbonyl-]: the zone of inhibition at 1000 µg/mL in series [1] is 32 mm. Besides, the MIC worked out at 250 µg/mL (≈ 446 µM) in series [2] (setting [13]), 250 µg/mL (≈ 446 µM) in series [3] (setting [14]), 125 µg/mL (≈ 223 µM) in series [4] (setting [15]) and 125 µg/mL (≈ 223 µM) in series [5] (setting [16]).
In the case of `COC1CC2C=CC3C4OC2(C(C)=CC(C)C(C(C)O)OC1=O)C3C(O)C(C)C4OC(=O)c1cc([N+](=O)[O-])c[nH]1` (centres unmarked) [U-61,462, 9-O--4-Nitropyrrole-2-carbonyl-], the zone of inhibition at 1000 µg/mL is 36 mm in series [1] and 20 mm in series [6] (read-out: Agar Diffusion 1 mg./ml. S.aureus UC 80 (inhibition zone), 1 mg./ml., 12.7 mm paper disc, 16 hours). Moreover, the MIC in series [2] (setting [13]) was determined as 125 µg/mL (≈ 223 µM); in series [3] (setting [14]), 31.2 µg/mL (≈ 55.7 µM); in series [4] (setting [15]), 31.2 µg/mL (≈ 55.7 µM); in series [5] (setting [16]), 15.6 µg/mL (≈ 27.8 µM).
`COC1CC2C=CC3C4OC2(C(C)=CC(C)C(C(C)O)OC1=O)C3C(O)C(C)C4OC(=O)c1ccc(Br)o1` (centres unmarked) [U-61,463, 9-O--5-Bromofuroyl-]: the zone of inhibition at 1000 µg/mL in series [1] stood at 35 mm; in series [6] (setting [12]), 0 mm.
